# Measurements as given in US20180352814A1 (priority 2015, published 2018).
# Tests used:
# Assay type in all cases: in vivo
# [1] = test system: tomato late blight fungus (Phytophthora infestans); conditions: 500 ppm foliage spray; tomato variety PATIO; inoculated 1 day after spraying
# [2] = test system: cucumber powdery mildew fungus (Sphaerotheca fuliginea); assay: Test Example 20: Control Test on Cucumber Powdery Mildew (Sphaerotheca fuliginea); conditions: 200 ppm foliage spray; cucumber cultivar SAGAMI HANJIRO; inoculated 1 day after spraying
# Source text: (§1) The non-treatment in Test Examples 5 to 20 means that foliage application of a mixture of a preparation containing the present compound and water was not performed.
# Control Test on Cucumber Powdery Mildew (Sphaerotheca fuliginea)
# Each of plastic pots was filled with soil and cucumber (cultivar; SAGAMI HANJIRO) was sowed and grown in a greenhouse for 12 days. Then, the present compound 41 formulated in accordance with the method mentioned in Formulation Example 6 was mixed with water so as to adjust the concentration to 200 ppm, and the mixture was sprayed over stems and leaves of the cucumber so that it sufficiently adhered to the surface of the leaves of the cucumber. After spraying, the […] was air-dried. After the cucumber was left to stand in a greenhouse at 24° C. during the day and 20° C. at night for 1 day, the spores of the cucumber seedling (cultivar; SAGAMI HANJIRO) infected by cucumber powdery mildew fungus were sprinkling-inoculated. After inoculation, the cucumber was cultivated in a greenhouse at 24° C. during the day and 20° C. at night for 8 days, and then the area of lesion spots was investigated.
# [3] = test system: soybean rust fungus (Phakopsora pachyrhizi); assay: Test Example 9: Control Test on Soybean Rust (Phakopsora pachyrhizi), spraying after inoculation; conditions: 200 ppm foliage spray 3 days after inoculation; soybean cultivar KUROSENGOKU
# Source text: as §1
# (§2) Control Test on Soybean Rust (Phakopsora pachyrhizi)
# Each of plastic pots was filled with soil and soybean (cultivar: KUROSENGOKU) was sowed and grown in a greenhouse for 10 days. Thereafter, an aqueous suspension containing spores of soybean rust fungus was sprayed to inoculate the spores. After inoculation, the soybean was at first left to stand in a greenhouse at 23° C. in the daytime and 20° C. at night under high humidity condition for 1 day and cultivated in a greenhouse at room temperature for 2 days. Then, the present compound 1 to 9, 11 to 23, 26 to 33, 35 to 41, or 44 formulated in accordance with the method mentioned in Formulation Example 6 was mixed with water so as to adjust the concentration to 200 ppm, and the mixture was sprayed over stems and leaves of the soybean so that it sufficiently adhered to the surface of the leaves of the soybean. After spraying, the soybean was air-dried and cultivated in a greenhouse for 8 days, and then the area of lesion spots was investigated.
# [4] = test system: soybean rust fungus (Phakopsora pachyrhizi); assay: Test Example 10: Control Test on Soybean Rust (Phakopsora pachyrhizi), spraying before inoculation; conditions: 200 ppm foliage spray; soybean cultivar KUROSENGOKU; inoculated 4 days after spraying
# Source text: as §1, §2
# Each of plastic pots was filled with soil and soybean (cultivar: KUROSENGOKU) was sowed and grown in a greenhouse for 13 days. Then, the present compound 1 to 9, 11 to 21, 29 to 37, or 44 formulated in accordance with the method mentioned in Formulation Example 6 was mixed with water so as to adjust the concentration to 200 ppm, and the mixture was sprayed over stems and leaves so that it sufficiently adhered to the surface of the leaves of the soybean. After spraying, the soybean was air-dried. After 4 days, an aqueous suspension containing spores of soybean rust fungus was sprayed to inoculate the spores. After inoculation, the soybean was at first left to stand in a greenhouse at 23° C. in the daytime and 20° C. at night under high humidity condition for 1 day, and then cultivated in a greenhouse for 10 days, and the area of lesion spots was investigated. As a result, the area of lesion spots on the soybean treated with the present compound 1 to 9, 11 to 21, 29 to 37, or 44 was 30% or less of that on a non-treated soybean.
# [5] = test system: soybean frogeye leaf spot (Cercospora sojina) fungus; assay: Test Example 15: Control Test on Soybean Frogeye Leaf Spot (Cercospora sojina); conditions: 200 ppm foliage spray 5 days after inoculation; soybean cultivar TACHINAGAHA
# Source text: as §1
# Control Test on Soybean Frogeye Leaf Spot (Cercospora sojina)
# Each of plastic pots was filled with soil and soybean (cultivar: TACHINAGAHA) was sowed and grown in a greenhouse for 13 days. Thereafter, an aqueous suspension containing spores of soybean frogeye leaf spot (Cercospora sojina) fungus was sprayed to inoculate the spores. After inoculation, the soybean was at first left to stand in a greenhouse at 23° C. in the daytime under high humidity condition for 4 days, and cultivated in a greenhouse at 23° C. for 1 day. Then, the present compound 11 formulated in accordance with the method mentioned in Formulation Example 6 was mixed with water so as to adjust the concentration to 200 ppm, and the mixture was sprayed over stems and leaves of the soybean so that it sufficiently adhered to the surface of the leaves of the soybean. After spraying, the soybean was air-dried and cultivated in a greenhouse at 24° C. during the day and 20° C. at night for 21 days, and then the area of lesion spots was investigated.
smiles,measurement,setting,value
CCOCCNC(=O)Oc1ccc(-c2noc(C(F)(F)F)n2)cc1 [compound 9],area of lesion spots on the treated tomato relative to that on a non-treated tomato,[1],≤ 30%
CC1(C(=O)Nc2ccc(-c3noc(C(F)(F)F)n3)cc2)CC1 [compound 41],area of lesion spots on the treated cucumber relative to that on a non-treated cucumber,[2],≤ 30%
O=C(Oc1ccc(-c2noc(C(F)(F)F)n2)cc1)C1CCCCC1 [compound 44],area of lesion spots on the treated soybean relative to that on a non-treated soybean,[3],≤ 30%
same,area of lesion spots on the treated soybean relative to that on a non-treated soybean,[4],≤ 30%
COCCN(C)C(=O)Oc1ccc(-c2noc(C(F)(F)F)n2)cc1F [compound 11],area of lesion spots on the treated soybean relative to that on a non-treated soybean,[5],≤ 30%
